Where two headings read alike, the source gives them in different places.
Columns and labels:
[1] = tested on: human lung cancer cell line NCI-H460; test: Colony formation inhibition test; type: cell-based; conditions: 288 h, NCI-H460 cells, culture for 12 days, read-out: Inhibitory activity (colony formation GI50)
Experimental: Each compound was evaluated for its colony formation inhibitory activity against a human lung cancer cell line NCI-H460. The NCI-H460 cells were cultured in a DMEM medium (FUJIFILM Wako Pure Chemical Corp., 044-29765) containing 10% fetal bovine serum and 4 mM glutamine. The cultured cells were washed with PBS, then detached with trypsin/EDTA, and adjusted to 2×10^3 cells/mL to prepare a cell suspension. The cell suspension was inoculated at 1 mL/well to a 12-well microplate (Corning Inc., 3513), and the test compound (DMSO solution) was added at 1 μL/well, followed by culture for 12 days under conditions of 37° C. and 5% CO2. DMSO was added at 1 μL/well to control wells with a final DMSO concentration set to 0.1%. The medium was discarded every day or every two days, and a fresh medium was added at 1 mL/well. The test compound or DMSO was added at 1 μL/well. The proportion of a colony of each well was measured using a high-speed cell imaging system (Tomy Digital Biology Co., Ltd., Celigo). The ratio of the colony in each compound-supplemented group was determined with the ratio of the colony formed in a test compound solution-unsupplemented well defined as 1. A compound concentration necessary for suppressing the rate of colony formation by 50% of the control (GI50) was calculated using data analysis software Origin (LightStone Crop.).

[2] = molecular target: T1, recombinant human G9a protein (Homo sapiens, UniProt Q96KQ7); test: G9a inhibitory activity test (ALPHA); type: biochemical
T1 construct: purchased BPS Bioscience Inc. #51001
T1 sequence (Q96KQ7 785-1210 limits assumed): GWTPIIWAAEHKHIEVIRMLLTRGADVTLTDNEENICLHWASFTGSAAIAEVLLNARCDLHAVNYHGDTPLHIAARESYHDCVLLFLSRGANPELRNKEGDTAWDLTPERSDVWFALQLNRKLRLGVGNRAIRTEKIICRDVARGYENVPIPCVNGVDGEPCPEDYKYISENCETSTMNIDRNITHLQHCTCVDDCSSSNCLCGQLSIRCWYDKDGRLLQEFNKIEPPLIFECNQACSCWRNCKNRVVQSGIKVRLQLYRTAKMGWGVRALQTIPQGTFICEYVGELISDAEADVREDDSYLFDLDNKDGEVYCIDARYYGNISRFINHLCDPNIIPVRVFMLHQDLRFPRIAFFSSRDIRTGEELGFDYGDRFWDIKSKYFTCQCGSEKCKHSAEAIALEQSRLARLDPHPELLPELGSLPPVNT
In short: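 Human G9a (0.05 to 0.1 nM) in Tris pH 9.0 buffer preincubated with compound 10 min, then biotinylated histone H3 (1-21) peptide and SAM mixed 1:1 from 500 nM and 150 μM solutions, 1 h at room temperature. H3K9me2 detected by AlphaLISA acceptor/streptavidin donor beads; IC50 from percent inhibition relative to no-compound and no-enzyme controls.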

[3] = tested on: intracellular histone H3K9 dimethylation level in human lung cancer cell line NCI-H460; test: Histone H3K9 dimethylation inhibitory activity test (Western blotting); type: cell-based; conditions: NCI-H460 cells, 72 hours
Experimental: The inhibitory activity of each compound against G9a was evaluated by adding the compound to a human lung cancer cell line NCI-H460, and detecting change in intracellular histone H3K9 dimethylation level by Western blotting. The NCI-H460 cells were cultured in a DMEM medium (FUJIFILM Wako Pure Chemical Corp., 044-29765) containing 10% fetal bovine serum and 4 mM glutamine. The cultured cells were washed with PBS and then detached with trypsin/EDTA, and the cell suspension was adjusted to 2.5×10^4 cells/mL. The cell suspension was inoculated at 500 μL/well to a 24-well microplate (Thermo Fisher Scientific, Inc., 142475) and cultured overnight under conditions of 37° C. and 5% CO2. On the next day, the test compound (solution in DMSO) was added at 0.5 µL/well and reacted for 72 hours under conditions of 37° C. and 5% CO2. DMSO was added at 0.5 μL/well to control wells (final DMSO concentration: 0.1%). The medium was removed, and the cells were washed with PBS. Then, a 2×SDS-PAGE sample buffer (100 mM Tris-HCl (pH 6.8), 4% sodium lauryl sulfate, 2% 2-mercaptoethanol, 20% glycerol, 0.005% bromophenol blue) was added at 50 μL/well to prepare a sample. The recovered sample was heated at 95 to 100° C. for 10 minutes, and protein was separated by polyacrylamide gel electrophoresis (SDS-PAGE). Subsequently, the separated protein was transferred to a polyvinylidene fluoride (PVDF) membrane by semi-dry blotting. The PVDF membrane was dipped in 3% skimmed milk (dissolved in PBS containing 0.05% Tween 20 (PBST)), blocked at room temperature for 30 to 60 minutes, then dipped in an anti-dimethylated histone H3K9 antibody (Abcam plc, ab1220) diluted 1000-fold with 3% skimmed milk, and reacted overnight at 4° C. On the next day, the PVDF membrane was washed three times with PBST, then dipped in a HRP (horseradish peroxidase)-labeled anti-mouse IgG antibody diluted 10000-fold with skimmed milk, and reacted at room temperature for 1 hour. The PVDF membrane was washed three times with PBST, then dipped in chemiluminescent substrate solution Immobilon Western Chemiluminescent HRP Substrate (Merck Millipore, WBKLS0500), incubated at room temperature for 5 minutes, and photographed with Lumino Image Analyzer (GE Healthcare Japan Corp., ImageQuant LAS4000).
Then, the antibody was stripped from the PVDF membrane using re-probe reagent EzReprobe (ATTO Corp., WSE-7240), and trimethylated histone H3K9 and histone H3 were detected by the same procedures as above. An anti-trimethyl histone H3K9 antibody (39161, diluted 1000-fold) from Active Motif, Inc. and an anti-histone H3 antibody (ab1791, diluted 2000-fold) from Abcam plc were used in the detection. The band of each protein was quantified from the taken image using image processing software ImageJ (NIH). The ratios of dimethylated histone H3K9 and trimethylated histone H3K9 to the histone H3 protein were calculated with the numeric value of a compound-unsupplemented sample defined as 100%. A compound concentration at which the ratio of dimethylated histone H3K9 was 50% was calculated as a 50% inhibition concentration (IC50 value) using data analysis software Origin (LightStone Corp.).

[4] = biotinylated histone H3 peptide (1-21), SAM, read-out: Inhibitory activity (G9a IC50 value)
[5] = read-out: Inhibitory activity (G9a IC50)

Row | SMILES | GI50 [1] | IC50 [2, 4] | IC50 [3] | IC50 [2, 5]
1 | Cc1c(C(=O)NC(CCC2CC2)C(=O)NC2CCN(C)CC2)[nH]c2c1C(=O)CC(C)(C)C2 (stereo not drawn) [Example 1-68] | ≥ 1 µM | ≥ 0.2 µM | 0.05 to 0.5 µM | –
2 | Cc1c(C(=O)NC(CCC2CC2)C(=O)Nc2ccc(C#N)cc2)[nH]c2c1C(=O)CC(C)(C)C2 (stereo not drawn) [Example 1-79] | < 0.5 µM | 0.05 to 0.2 µM | < 0.05 µM | –
3 | Cc1ccc(NC(=O)C(CCC2CC2)NC(=O)c2[nH]c3c(c2C)C(=O)CC(C)(C)C3)cn1 (stereo not drawn) [Example 1-80] | 0.5 to 1 µM | ≥ 0.2 µM | 0.05 to 0.5 µM | –
4 | Cc1c(C(=O)NC(CCC2CC2)C(=O)N2CCc3ccccc32)[nH]c2c1C(=O)CC(C)(C)C2 (stereo not drawn) [Example 1-81] | < 0.5 µM | 0.05 to 0.2 µM | 0.05 to 0.5 µM | –
5 | CCCCNC(=O)C(CCC1CC1)NC(=O)c1[nH]c2c(c1C)C(=O)CC(C)(C)C2 (stereo not drawn) [Example 1-82] | ≥ 1 µM | 0.05 to 0.2 µM | < 0.05 µM | –
6 | O=C(Cc1ccccc1)NC(CCC1CC1)C(=O)Nc1ccc(OC2COC2)nc1 (stereo not drawn) [Example 1-87] | ≥ 1 µM | 0.05 to 0.2 µM | 0.05 to 0.5 µM | –
7 | CCCC[C@H](NC(=O)c1[nH]c2c(c1C)C(=O)CC(C)(C)C2)C(=O)N[C@@H](C)c1ccccc1 [Example 2-1, 3,6,6-trimethyl-4-oxo-N-((S)-1-oxo-1-(((S)-1-phenylethyl)amino)hexan-2-yl)-4,5,6,7-tetrahydro-1H-indole-2-carboxamide] | 0.5 to 1 µM | – | < 0.05 µM | 0.05 to 0.2 µM
8 | Cc1ccc(NC(=O)[C@H](CCC2CC2)NC(=O)c2[nH]c3c(c2C)C(=O)CC(C)(C)C3)cn1 [Example 6-10] | 0.5 to 1 µM | – | 0.05 to 0.5 µM | < 0.05 µM
9 | Cc1c(C(=O)NC(CCC2CC2)C(=O)Nc2ccccc2)[nH]c2c1C(=O)CC(C)(C)C2 (stereo not drawn) [Example 6-17] | 0.5 to 1 µM | – | < 0.05 µM | 0.05 to 0.2 µM
10 | Cc1c(C(=O)N[C@@H](CCC2CC2)C(=O)Nc2ccccc2)[nH]c2c1C(=O)CC(C)(C)C2 [Example 6-26] | < 0.5 µM | – | < 0.05 µM | < 0.05 µM
11 | CCCC[C@H](NC(=O)c1[nH]c2c(c1C)C(=O)CC(C)(C)C2)C(=O)Nc1ccc(OC2CCN(C)CC2)cc1OC [Example 6-30] | < 0.5 µM | – | < 0.05 µM | < 0.05 µM
12 | CCCC[C@H](NC(=O)c1[nH]c2c(c1C)C(=O)CC(C)(C)C2)C(=O)Nc1ccc(OC2CCN(C)CC2)cc1 [Example 6-32] | < 0.5 µM | – | < 0.05 µM | < 0.05 µM
13 | CCCC[C@H](NC(=O)c1[nH]c2c(c1C)C(=O)CC(C)(C)C2)C(=O)Nc1ccccc1 [Example 6-33] | ≥ 1 µM | – | 0.05 to 0.5 µM | ≥ 0.2 µM
14 | CCCC[C@H](NC(=O)c1[nH]c2c(c1C)C(=O)CC(C)(C)C2)C(=O)NCc1ccc(CN(C)C)cc1 [Example 6-34] | 0.5 to 1 µM | – | < 0.05 µM | < 0.05 µM
15 | COc1ccc(NC(=O)C(CCC2CC2)NC(=O)c2ccc(Nc3ccncc3)cc2)cn1 (stereo not drawn) [Example 6-49] | < 0.5 µM | – | 0.05 to 0.5 µM | < 0.05 µM
16 | COc1ccc(NC(=O)C(CCC2CC2)NC(=O)c2ccc(Nc3ccncc3)cc2C)cn1 (stereo not drawn) [Example 6-51] | < 0.5 µM | – | 0.05 to 0.5 µM | < 0.05 µM
17 | COc1ccc(NC(=O)C(CCC2CC2)NC(=O)c2ccc(CN3CCN(C)CC3)cc2)cn1 (stereo not drawn) [Example 6-52] | 0.5 to 1 µM | – | 0.05 to 0.5 µM | ≥ 0.2 µM
18 | COc1ccc(NC(=O)C(CCC2CC2)NC(=O)c2ccc(N(C)c3ccncc3)cc2)cn1 (stereo not drawn) [Example 6-55] | < 0.5 µM | – | 0.05 to 0.5 µM | < 0.05 µM
19 | COc1ccc(NC(=O)C(CCC2CC2)NC(=O)c2ccc(Nc3cc(C)nc(C)c3)cc2)cn1 (stereo not drawn) [Example 6-62] | < 0.5 µM | – | 0.05 to 0.5 µM | < 0.05 µM
20 | COc1ccc(NC(=O)[C@H](CCC2CC2)NC(=O)c2ccc(Nc3ccncc3)cc2)cn1 [Example 6-88] | < 0.5 µM | – | < 0.05 µM | < 0.05 µM
21 | COc1ccc(NC(=O)[C@H](CCC2CC2)NC(=O)c2ccc(Nc3cc(C)nc(C)c3)cc2)cn1 [Example 6-89] | < 0.5 µM | – | 0.05 to 0.5 µM | < 0.05 µM
22 | CCCCC(NC(=O)c1ccc(N2CCN(C)CC2)cc1Cl)C(=O)Nc1ccc(OC2CCN(C)CC2)nc1 (stereo not drawn) [Example 11-4] | ≥ 1 µM | – | ≥ 0.5 µM | ≥ 0.2 µM
23 | CCCCC(NC(=O)Cc1ccccc1)C(=O)Nc1ccc(OC2CCN(C)CC2)nc1 (stereo not drawn) [Example 12-2] | ≥ 1 µM | – | 0.05 to 0.5 µM | ≥ 0.2 µM
24 | CCCC[C@H](NC(=O)c1[nH]c2c(c1C)C(=O)CC(C)(C)C2)C(=O)NCc1ccc(N2CCN(C)CC2)cc1 [Example 22-2] | 0.5 to 1 µM | – | < 0.05 µM | 0.05 to 0.2 µM

Source: patent US20230127046A1, “G9a INHIBITOR” (RIKEN, priority 2019, published 2023)
